ChEMBL document CHEMBL5303573, “Mapping human microbiome drug metabolism by gut bacteria and their genes” (Nature, 2019)

Assays:
[1] = The drug is tested on Bacteroides cellulosilyticus strain: DSM14838 for biotransformation. The drug concentrations were measured before and after a 12-h incubation by liquid-chromatography-coupled mass spectrometry (LC–MS); conditions: 2 µM
[2] = The drug is tested on Clostridium symbiosum strain: ATCC14940 for biotransformation. The drug concentrations were measured before and after a 12-h incubation by liquid-chromatography-coupled mass spectrometry (LC–MS); conditions: 2 µM
[3] = The drug is tested on Dorea formicigenerans strain: ATCC27755 for biotransformation. The drug concentrations were measured before and after a 12-h incubation by liquid-chromatography-coupled mass spectrometry (LC–MS); conditions: 2 µM
[4] = The drug is tested on Providencia stuartii strain: ATCC25827 for biotransformation. The drug concentrations were measured before and after a 12-h incubation by liquid-chromatography-coupled mass spectrometry (LC–MS); conditions: 2 µM
[5] = parabacteroides distasonis, 12 h, 2 µM
Description: The drug is tested on Parabacteroides distasonis strain: ATCC8503 for biotransformation. The drug concentrations were measured before and after a 12-h incubation by liquid-chromatography-coupled mass spectrometry (LC–MS)

[6] = victivallis vadensis, 12 h, 2 µM
Description: The drug is tested on Victivallis vadensis strain: ATCC BAA-548 for biotransformation. The drug concentrations were measured before and after a 12-h incubation by liquid-chromatography-coupled mass spectrometry (LC–MS)

[7] = The drug is tested on Eggerthella lenta strain: ATCC25559 for biotransformation. The drug concentrations were measured before and after a 12-h incubation by liquid-chromatography-coupled mass spectrometry (LC–MS); conditions: 2 µM

Measured: Bacterial Biotransformation

CC(C)(C)N.CCC[C@H](N[C@@H](C)C(=O)N1[C@H](C(=O)O)C[C@@H]2CCCC[C@@H]21)C(=O)OCC [PERINDOPRIL ERBUMINE]
not listed: [7]
Compound NOT metabolized: all other assays above

O=c1[nH]c2ccccc2n1CCCN1CCC(n2c(=O)[nH]c3cc(Cl)ccc32)CC1 [DOMPERIDONE]
not listed: [4] | [7]
Compound NOT metabolized: all other assays above

CN(C)C(=O)Oc1cccc([N+](C)(C)C)c1.[Br-] [NEOSTIGMINE BROMIDE]
not listed: [6]
Compound NOT metabolized: all other assays above

Cc1cc2c(s1)Nc1ccccc1N=C2N1CCN(C)CC1 [OLANZAPINE]
Compound NOT metabolized: [2] | [3] | [5] | [6]

CN(C)CCOC(C)(c1ccccc1)c1ccccn1.O=C(O)CCC(=O)O (stereo not drawn) [DOXYLAMINE SUCCINATE]
not listed: [7]
Compound NOT metabolized: all other assays above

CC(CCc1ccccc1)NCC(O)c1ccc(O)c(C(N)=O)c1 (stereo not drawn) [LABETALOL]
not listed: [6]
Compound NOT metabolized: all other assays above

OC(Cn1cncn1)(Cn1cncn1)c1ccc(F)cc1F [FLUCONAZOLE]
Compound metabolized: [2] | [3]
Compound NOT metabolized: [7] | [1] | [5]

CC(C)(C)NC(=O)[C@H]1CC[C@H]2[C@@H]3CC[C@H]4NC(=O)C=C[C@]4(C)[C@H]3CC[C@]12C [FINASTERIDE]
not listed: [7]
Compound NOT metabolized: all other assays above

CC1OC(OC2C(O)CC(OC3C(O)CC(OC4CCC5(C)C(CCC6C5CCC5(C)C(C7=CC(=O)OC7)CCC65O)C4)OC3C)OC2C)CC(O)C1O (stereo not drawn)
Compound metabolized: [5]
Compound NOT metabolized: [2] | [3] | [4] | [6]

CCN(CC)CCNC(=O)c1cc(Cl)c(N)cc1OC [METOCLOPRAMIDE]
not listed: [6]
Compound NOT metabolized: all other assays above

CCOC(=O)[C@H](CCc1ccccc1)N[C@@H](C)C(=O)N1CCC[C@H]1C(=O)O.O=C(O)/C=C\C(=O)O [ENALAPRIL MALEATE]
not listed: [7]
Compound NOT metabolized: all other assays above

COc1ccccc1N1CCN(CC(O)COc2cccc3ccccc23)CC1 (stereo not drawn) [NAFTOPIDIL]
not listed: [6]
Compound NOT metabolized: all other assays above

Cc1cc2c(cc1S(N)(=O)=O)S(=O)(=O)CCC2
not listed: [3] | [7]
Compound NOT metabolized: all other assays above

CN1CCC(=C2c3ccccc3CC(=O)c3sccc32)CC1.O=C(O)/C=C/C(=O)O [KETOTIFEN FUMARATE]
not listed: [1] | [6]
Compound NOT metabolized: all other assays above

COc1cc2nc(N3CCN(C(=O)C4COc5ccccc5O4)CC3)nc(N)c2cc1OC.CS(=O)(=O)O (stereo not drawn) [DOXAZOSIN MESYLATE]
not listed: [5] | [7]
Compound NOT metabolized: all other assays above

COCCc1ccc(OCC(O)CNC(C)C)cc1.COCCc1ccc(OCC(O)CNC(C)C)cc1.O=C(O)C(O)C(O)C(=O)O (stereo not drawn) [METOPROLOL TARTRATE]
not listed: [1] | [6]
Compound NOT metabolized: all other assays above

CC(=O)O[C@]1(C(C)=O)CC[C@H]2[C@@H]3C=C(C)C4=CC(=O)CC[C@]4(C)[C@H]3CC[C@@]21C [MEGESTROL ACETATE]
Compound metabolized: [4] | [5]
not listed: [6]
Compound NOT metabolized: all other assays above
